Drawing on patent US9284291B2, “Kappa opioid receptor compounds” (MediSynergies, LLC, priority 2014, dated 2016), this text covers Ki and inhibition for one compound.

Common to all, as to assay type: binding
The target in one experiment is Kappa opioid receptor (Homo sapiens, UniProt P41145). Briefly: Opioid receptor affinity, NIMH PDSP screen, Kappa subtype. The method, then:
(§1) The compound of Example 7 was tested for activity vs. opioid receptor subtypes, at an initial concentration of 10 μM, through the NIMH Psychoactive Drug Screening Program (PDSP), operated by Dr. Bryan Roth and his colleagues in the Department of Pharmacology at the University of North Carolina (Chapel Hill, N.C.) through an agreement with the National Institute of Mental Health (NIMH).

A further experiment has as its target Mu opioid receptor (Homo sapiens, UniProt P35372). In words: Opioid receptor affinity, NIMH PDSP screen, Mu subtype. The method, then: as §1
The next experiment concerns the target Delta opioid receptor (Homo sapiens, UniProt P41143). In words: Opioid receptor affinity, NIMH PDSP screen, Delta subtype. As for the experimental part: as §1

pKi: −log10 of the molar value.

Kappa opioid receptor, sequence (P41145 whole entry): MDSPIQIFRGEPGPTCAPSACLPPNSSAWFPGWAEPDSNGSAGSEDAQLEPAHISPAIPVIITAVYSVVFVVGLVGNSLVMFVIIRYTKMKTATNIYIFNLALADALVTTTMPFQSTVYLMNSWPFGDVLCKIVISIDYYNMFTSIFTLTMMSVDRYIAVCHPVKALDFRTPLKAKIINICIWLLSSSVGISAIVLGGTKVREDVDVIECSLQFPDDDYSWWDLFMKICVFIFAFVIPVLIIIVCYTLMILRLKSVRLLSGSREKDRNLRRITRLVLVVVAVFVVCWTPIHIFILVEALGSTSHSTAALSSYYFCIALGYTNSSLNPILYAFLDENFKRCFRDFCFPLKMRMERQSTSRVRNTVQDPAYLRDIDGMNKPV
Mu opioid receptor, sequence (P35372 whole entry, species assumed): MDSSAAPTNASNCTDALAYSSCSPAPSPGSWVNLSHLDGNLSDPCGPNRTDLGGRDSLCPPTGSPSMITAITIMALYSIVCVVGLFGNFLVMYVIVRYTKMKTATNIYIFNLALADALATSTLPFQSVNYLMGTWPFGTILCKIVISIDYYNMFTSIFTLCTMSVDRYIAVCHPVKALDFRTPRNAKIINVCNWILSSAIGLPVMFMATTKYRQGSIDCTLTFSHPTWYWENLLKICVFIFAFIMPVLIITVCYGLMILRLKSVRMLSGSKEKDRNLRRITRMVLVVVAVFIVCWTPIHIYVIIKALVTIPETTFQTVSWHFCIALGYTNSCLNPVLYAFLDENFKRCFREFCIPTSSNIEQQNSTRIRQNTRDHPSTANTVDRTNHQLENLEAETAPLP
Delta opioid receptor, sequence (P41143 whole entry): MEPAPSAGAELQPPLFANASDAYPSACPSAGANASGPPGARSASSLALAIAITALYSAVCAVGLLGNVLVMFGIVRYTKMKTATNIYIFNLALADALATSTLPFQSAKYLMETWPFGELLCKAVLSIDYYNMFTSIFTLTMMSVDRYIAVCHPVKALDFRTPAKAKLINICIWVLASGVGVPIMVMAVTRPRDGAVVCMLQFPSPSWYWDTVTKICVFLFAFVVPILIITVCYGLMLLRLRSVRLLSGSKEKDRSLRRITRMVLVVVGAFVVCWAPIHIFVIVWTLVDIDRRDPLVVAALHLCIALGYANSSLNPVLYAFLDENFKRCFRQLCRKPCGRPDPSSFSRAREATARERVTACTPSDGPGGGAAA

Regarding `CN(C)CCCC1(c2ccc(F)cc2)OCc2cc(-c3ncc[nH]3)ccc21` (stereo not shown) [Example 7], the pKi (commonly −log10 of the Ki, conventionally taken in molar units) on Kappa opioid receptor is 7.33. Moreover, the inhibition (commonly the relative decrease from the control value, in per cent) at 10 µM against Kappa opioid receptor (10 μM) stood at 100%; at Mu opioid receptor, 39.1%; at Delta opioid receptor, 23.5%.
